Test results: US20100286024A1, “Insulinotropic compounds and uses thereof” (priority 2005, published 2010)
Values belong to the compound of their own block, whether it stands above or below them. No end group written: not given here.

Assays:
beta TC-6 cell line = test: Insulin release assay (insulin ELISA); type: cell-based, mouse; conditions: for Insulin release: 5 mM glucose, 30 minutes, Beta-TC-6 cells, cells only 1.37-3.67; for Activity of 15 μM of each peptide as percentage of insulin release by cells only / Activity of 3 μM of each peptide as percentage of insulin release by cells only: cells alone=100%
Description: This was derived from a pancreatic tumor (insulinoma) arising in a transgenic mouse.
Beta-TC-6 cells were purchased from A.T.C.C. (A.T.C.C. number CCL-11506; Manassas, Va., U.S.A.). Beta-TC-6 cells were cultured in Dulbecco's Modified Eagle's medium supplemented with 15% (v/v) heat-inactivated foetal bovine serum, 1% (v/v) glutamine, 0.45% (w/v) glucose and 0.15% (w/v) sodium bicarbonate at 37° C. in a humidified 5% CO2 atmosphere. Beta-TC-6 cells form islands and the monolayer never becomes confluent; cells were passaged at 70% confluence (7 days from seeding) at a subcultivation ratio of 1:4. The monolayer was disrupted from the surface of the culture flask with 0.25% (w/v) Trypsin-0.53 mM EDTA.
Beta-TC-6 cells were cultured in 12 well plates for between 4-8 days prior to use. Cells were cultured in Krebs-Ringer (10 mM Hepes, pH 7.4, 136 mM NaCl, 4.7 mM KCl and 1.25 mM MgSO4) supplemented with 5 mM glucose for 1 hr at 37° C. in a humidified 5% CO2 atmosphere. This medium was removed, cells washed with Krebs-Ringer. Beta-TC-6 cells were then cultured in 1 ml per well of Krebs-Ringer supplemented with 5 mM glucose and 0, 0.12, 0.6, 3 and 15 μM of peptide in duplicate for 30 minutes at 37° C. in a humidified 5% CO2 atmosphere. Medium was removed, diluted 1:5, and insulin concentration determined using an insulin ELISA kit (Mercodia, Uppsala, Sweden) according to the manufacturer's protocol. Beta-TC-6 cells were washed three times with ice-cold PBS and extracted into 0.5 ml lysis buffer (62.5 mM Tris, pH 7.5, and 1%, v/v, SDS) per well. Protein concentration was determined by Lowry assay. […] Only single-sided p values are shown.

GLP-1 receptor (mouse) = GLP-1 receptor (mouse) (UniProt O35659)
DPP-IV = DPP-IV (Homo sapiens, UniProt P27487); test: Dipeptidyl Peptidase IV (DPP-IV) digestion, stability by RP-HPLC (Example 10); type: in vitro ADME; conditions: DPP-IV (isolated peptidase), PBS/TEthA, pH 7.5, 37°, DPP-IV, read-out: percentage of analogue remaining
Sequence of DPP-IV (P27487 whole entry, species assumed): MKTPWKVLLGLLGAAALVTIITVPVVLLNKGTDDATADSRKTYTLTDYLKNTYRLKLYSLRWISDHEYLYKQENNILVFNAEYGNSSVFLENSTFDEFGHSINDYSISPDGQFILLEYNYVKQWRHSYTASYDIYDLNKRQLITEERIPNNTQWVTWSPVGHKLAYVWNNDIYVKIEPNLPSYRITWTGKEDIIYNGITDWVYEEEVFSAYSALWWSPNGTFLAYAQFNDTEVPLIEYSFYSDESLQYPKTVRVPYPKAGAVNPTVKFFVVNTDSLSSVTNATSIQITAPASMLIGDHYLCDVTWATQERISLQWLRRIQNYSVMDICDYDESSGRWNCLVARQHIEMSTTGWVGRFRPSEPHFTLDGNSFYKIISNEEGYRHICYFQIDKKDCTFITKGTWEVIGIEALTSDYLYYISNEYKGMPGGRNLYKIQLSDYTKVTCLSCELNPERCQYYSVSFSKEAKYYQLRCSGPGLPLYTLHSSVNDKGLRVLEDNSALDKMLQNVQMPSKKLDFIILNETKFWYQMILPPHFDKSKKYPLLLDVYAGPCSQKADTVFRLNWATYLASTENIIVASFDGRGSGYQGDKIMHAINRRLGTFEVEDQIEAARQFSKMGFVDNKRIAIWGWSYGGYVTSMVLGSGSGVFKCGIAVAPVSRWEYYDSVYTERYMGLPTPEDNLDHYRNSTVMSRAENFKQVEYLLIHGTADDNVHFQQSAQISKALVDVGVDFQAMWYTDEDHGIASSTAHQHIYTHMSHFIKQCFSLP
Description: Their stabilities were monitored by RP-HPLC, noting the disappearance of the intact sequence and appearance of a species missing the N terminal dipeptide or similar fragment.

[1] = Control study: chemical stability in PBS/triethanolamine without DPP-IV; type: physicochemical; conditions: PBS/TEthA, pH 7.5, 37°, no DPP-IV; for remaining at 22 h / remaining at 47 h: PBS/triethanolamine solution without DPP-IV, read-out: percentage of peptide remaining
Description: In the control study, peptides were incubated with PBS/triethanolamine solution in the absence of DPP-IV to measure their chemical stability.

dipeptidyl peptidase IV = test: DPP-IV assay (Example 5), HPLC/ES-MS; type: in vitro ADME; conditions: 11 milliunits DPP-IV, 50 mM triethanolamine buffer pH 7.8, 37° C., HPLC and ES-MS
Description: J. Bailey, F. P. M. O'Harte, and P. R. Flatt. […] Biological Chemistry. 385, pp 169-177.
Briefly, 100-200 microgams of each peptide was dissolved in 0.5 ml of 50 mM triethanolamine buffer, pH 7.8. To this was added a 10 microlitre solution of 11 milliunits DPP-IV (Sigma) and the solutions incubated at 37° C. for up to 42 hours. […] The incubations were terminated by addition of 5 microlitres TFA to each tube and 50 microlitre of each were injected onto a reversed phase 4.6×250 mm C18 HPLC column, eluting a gradient of 20%-45% acetonitrile in 0.1% TFA/water over 25 minutes. […] After 42 hours, the 2 analogues slowly degraded to a product that gave a mass spectrum consistent with the mass of the 9-37 sequence, indicating longer term instability of the urea bond. This represented as much as 15% of the product by HPLC. This degradation appeared to be non-DPP-IV related, since samples without enzyme gave the same profile.

[2] = molecular target: L-His-NH-NH-CH(CH3)-C(O)-Glu9-37 (SP008) (Homo sapiens)
[3] = molecular target: Native GLP-1 7-37 (Homo sapiens)
[4] = molecular target: L-His-NH-NH-CH2-C(O)-Glu9-37 (SP006) (Homo sapiens)
[5] = molecular target: L-His-L-NH-CH(CH3)-CH2-NH-O-CH2-C(O)-Glu9-37 (SP005) (Homo sapiens)
[6] = molecular target: L-His-L-Ala-NH-NH-CH2-C(O)-Glu9-37 (SP007) (Homo sapiens)

Compound: Glu Gly Thr Phe Thr Ser Asp Val Ser Ser Tyr Leu Glu Gly Gln Ala Ala Lys Glu Phe Ile Ala Trp Leu Val Lys Gly Arg Gly (EGTFTSDVSSYLEGQAAKEFIAWLVKGRG; listed as Homo sapiens) [Native GLP-1 9-37, reference compound]
Insulin release (beta TC-6 cell line; 15 μM peptide): 3.25 ng/min/mg
Activity of 15 μM of each peptide as percentage of insulin release by cells only (beta TC-6 cell line; 15 μM peptide): 123 ± 17%

Compound: CC[C@H](C)[C@H](NC(=O)[C@H](Cc1ccccc1)NC(=O)[C@H](CCC(=O)O)NC(=O)[C@H](CCCCN)NC(=O)[C@H](C)NC(=O)[C@H](C)NC(=O)[C@H](CCC(N)=O)NC(=O)CNC(=O)[C@H](CCC(=O)O)NC(=O)[C@H](CC(C)C)NC(=O)[C@H](Cc1ccc(O)cc1)NC(=O)[C@H](CO)NC(=O)[C@H](CO)NC(=O)[C@@H](NC(=O)[C@H](CC(=O)O)NC(=O)[C@H](CO)NC(=O)[C@@H](NC(=O)[C@H](Cc1ccccc1)NC(=O)[C@@H](NC(=O)CNC(=O)[C@H](CCC(=O)O)NC(=O)[C@H](C)NNC(=O)[C@@H](N)Cc1c[nH]cn1)[C@@H](C)O)[C@@H](C)O)C(C)C)C(=O)N[C@@H](C)C(=O)N[C@@H](Cc1c[nH]c2ccccc12)C(=O)N[C@@H](CC(C)C)C(=O)N[C@H](C(=O)N[C@@H](CCCCN)C(=O)NCC(=O)N[C@@H](CCCNC(=N)N)C(=O)NCC(=O)O)C(C)C [SP008, L-His-NH—NH—CH(CH3)—C(O)-Glu9-37]
remaining at 22 h (DPP-IV): 95%
remaining at 47 h (DPP-IV): 93%
remaining at 22 h [1]: 91%
remaining at 47 h ([1]; 47 hr): 77%
Insulin release (beta TC-6 cell line; 3 μM peptide): 4.35 ng/min/mg
Activity of 3 μM of each peptide as percentage of insulin release by cells only (beta TC-6 cell line; 3 μM peptide): 112 ± 44%
Insulin release (beta TC-6 cell line; 15 μM peptide): 6.20 ng/min/mg
Activity of 15 μM of each peptide as percentage of insulin release by cells only (beta TC-6 cell line; 15 μM peptide): 170 ± 48%

Compound: L-His-L-NH-CH(CH3)-CH2-NH-O-CH2-C(O)-Glu9-37 (SP005) (peptide)
Activity of 15 µM of each peptide as percentage of insulin release by cells only (beta TC-6 cells) (% of insulin release by cells only) (GLP-1 receptor (mouse)): 358

Compound: dipeptidyl peptidase IV (DPP-IV) (Sigma) (enzyme)
percentage of each analogue remaining after incubation with DPP-IV (RP-HPLC), 47 hr [2]: 93 % remaining
percentage of each analogue remaining after incubation with DPP-IV (RP-HPLC), 22 hr [3]: < 5 % remaining
percentage of each analogue remaining after incubation with DPP-IV (RP-HPLC), 47 hr [4]: 87 % remaining
percentage of each analogue remaining after incubation with DPP-IV (RP-HPLC), 47 hr [5]: 93 % remaining
percentage of each analogue remaining after incubation with DPP-IV (RP-HPLC), 22 hr [6]: < 5 % remaining

Compound: GLP-1 NH2-D-His-D-Ala-Urea-9-37 (SP002) (peptide)
Activity of 15 µM of each peptide as percentage of insulin release by cells only (beta TC-6 cells) (% of insulin release by cells only) (GLP-1 receptor (mouse)): 254

Compound: CC[C@H](C)[C@H](NC(=O)[C@H](Cc1ccccc1)NC(=O)[C@H](CCC(=O)O)NC(=O)[C@H](CCCCN)NC(=O)[C@H](C)NC(=O)[C@H](C)NC(=O)[C@H](CCC(N)=O)NC(=O)CNC(=O)[C@H](CCC(=O)O)NC(=O)[C@H](CC(C)C)NC(=O)[C@H](Cc1ccc(O)cc1)NC(=O)[C@H](CO)NC(=O)[C@H](CO)NC(=O)[C@@H](NC(=O)[C@H](CC(=O)O)NC(=O)[C@H](CO)NC(=O)[C@@H](NC(=O)[C@H](Cc1ccccc1)NC(=O)[C@@H](NC(=O)CNC(=O)[C@H](CCC(=O)O)NC(=O)CONC[C@H](C)NC(=O)[C@@H](N)Cc1c[nH]cn1)[C@@H](C)O)[C@@H](C)O)C(C)C)C(=O)N[C@@H](C)C(=O)N[C@@H](Cc1c[nH]c2ccccc12)C(=O)N[C@@H](CC(C)C)C(=O)N[C@H](C(=O)N[C@@H](CCCCN)C(=O)NCC(=O)N[C@@H](CCCNC(=N)N)C(=O)NCC(=O)O)C(C)C [SP005, L-His-L-NH—CH(CH3)—CH2—NH—O—CH2—C(O)-Glu9-37]
remaining at 22 h (DPP-IV): 95%
remaining at 47 h (DPP-IV): 93%
remaining at 22 h [1]: 95%
remaining at 47 h ([1]; 47 hr): 89%
Insulin release (beta TC-6 cell line; 3 μM peptide): 2.25 ng/min/mg
Activity of 3 μM of each peptide as percentage of insulin release by cells only (beta TC-6 cell line; 3 μM peptide): 171 ± 53%
Insulin release (beta TC-6 cell line; 15 μM peptide): 5.26 ng/min/mg
Activity of 15 μM of each peptide as percentage of insulin release by cells only (beta TC-6 cell line; 15 μM peptide): 358 ± 128%

More lines, main results first:

Activity of 15 µM of each peptide as percentage of insulin release by cells only (beta TC-6 cells) (% of insulin release by cells only) (GLP-1 receptor (mouse)): 100
Compound: GLP-1 NH2-L-His-L-Ala-urea-9-37 (SP001) (peptide)

Activity of 15 µM of each peptide as percentage of insulin release by cells only (beta TC-6 cells) (% of insulin release by cells only) (GLP-1 receptor (mouse)): 330
Compound: L-His-NH-NH-CH2-C(O)-Glu9-37 (SP006) (peptide)

remaining at 22 h (DPP-IV): 88%
remaining at 47 h (DPP-IV): 87%
percentage of peptide remaining ([1]; 47 hr): 88%
remaining at 22 h [1]: 88%
Compound: CC[C@H](C)[C@H](NC(=O)[C@H](Cc1ccccc1)NC(=O)[C@H](CCC(=O)O)NC(=O)[C@H](CCCCN)NC(=O)[C@H](C)NC(=O)[C@H](C)NC(=O)[C@H](CCC(N)=O)NC(=O)CNC(=O)[C@H](CCC(=O)O)NC(=O)[C@H](CC(C)C)NC(=O)[C@H](Cc1ccc(O)cc1)NC(=O)[C@H](CO)NC(=O)[C@H](CO)NC(=O)[C@@H](NC(=O)[C@H](CC(=O)O)NC(=O)[C@H](CO)NC(=O)[C@@H](NC(=O)[C@H](Cc1ccccc1)NC(=O)[C@@H](NC(=O)CNC(=O)[C@H](CCC(=O)O)NC(=O)CNNC(=O)[C@@H](N)Cc1c[nH]cn1)[C@@H](C)O)[C@@H](C)O)C(C)C)C(=O)N[C@@H](C)C(=O)N[C@@H](Cc1c[nH]c2ccccc12)C(=O)N[C@@H](CC(C)C)C(=O)N[C@H](C(=O)N[C@@H](CCCCN)C(=O)NCC(=O)N[C@@H](CCCNC(=N)N)C(=O)NCC(=O)O)C(C)C [SP006, L-His-NH-NH-CH2-C(O)-Glu9-37]
Insulin release (beta TC-6 cell line; 3 μM peptide): 3.86 ng/min/mg
Activity of 3 μM of each peptide as percentage of insulin release by cells only (beta TC-6 cell line; 3 μM peptide): 154 ± 25%
Insulin release (beta TC-6 cell line; 15 μM peptide): 8.88 ng/min/mg
Activity of 15 μM of each peptide as percentage of insulin release by cells only (beta TC-6 cell line; 15 μM peptide): 330 ± 89%

Activity of 15 µM of each peptide as percentage of insulin release by cells only (beta TC-6 cells) (% of insulin release by cells only) (GLP-1 receptor (mouse)): 170
Compound: L-His-NH-NH-CH(CH3)-C(O)-Glu9-37 (SP008) (peptide)

state of peptide after 18 hr incubation with DPP-IV (dipeptidyl peptidase IV): completely cleaved
Compound: HAEGTFTSDVSSYLEG [GLP-1 7-22]

Activity of 15 µM of each peptide as percentage of insulin release by cells only (beta TC-6 cells) (% of insulin release by cells only) (GLP-1 receptor (mouse)): 235
Compound: L-His-L-Ala-NH-NH-CH2-C(O)-Glu9-37 (SP007) (peptide)
